The results in this text go back to US20250320562A1, “ALTERNATIVELY SPLICED ISOFORM IN CANCER AND METHODS OF USE THEREOF” (THE CHILDREN'S HOSPITAL OF PHILADELPHIA, priority 2022, published 2025).

Assay [1] has as its system B-ALL cells expressing NT5ex4a. The assay is described as follows: In vitro sensitivity to mizoribine of cells expressing the non-canonical NT5C2 isoform. Format: cell-based. The settings on record: expression of the non-canonical isoform NT5ex4a. From the text: FIG. 6: Mizoribine specifically blocks the […], adding extra pressure in NT5C2 hyperactive cells (Dieck et al., Blood, 2019). (Left panel) Mechanism of action of 6-MP and 6-TG purine analogs. (Right panel) Effects of NT5C2 activating-mutations on purine bases synthesis and degradation.
(§1) Consistent with this biochemical finding, in reconstituted NT5C2low B-ALL cells NT5ex4a conferred the same level of resistance to 6-MP as the variant with the R238W hotspot mutation (2-log difference in IC50). […] Therefore, inclusion of NT5C2 exon 4a phenocopies relapse-specific mutations and could serve as both a valuable predictive biomarker in B-ALL and potentially chronic myelogenous (CML) and acute myeloid leukemia (AML).

For assay [2], the system named is reconstituted NT5C2low B-ALL cells. Description: Resistance to 6-MP in reconstituted NT5C2low B-ALL cells expressing NT5C2 isoforms. Format: cell-based.
From the text: FIGS. 8A-8C: Possible effects of phosphorylation of the NT5C2 activity. (FIG. 8A) Predicted serine and threonine phosphorylation sites in the NT5C2 amino acid sequence. […] (SEQ ID NOS: 5-24) (FIG. 8B) Top ten kinases predicted to phosphorylate the NT5C2 exon NT5ex4a-encoded peptide. (FIG. 8C) Increased pro-survival activity of NT5C2 E4a isoform where the Ser-121 has been replaced by a phosphomimetic aspartic acid (S121D). Compare curves with rectangles and triangles.
as §1
To determine the mechanism underlying the pro-survival activity of the NT5C2 E4a isoform, it was considered that it might be phosphorylated. Indeed, the application of predictive algorithms identified serine at position 121 as the residue in exon NT5ex4a most likely to be phosphorylated (FIG. 8A). Based on the amino acid context, it most strongly resembles consensus sites for kinases of the AGC, CAMK, and PIKK families. The latter includes such important cancer-related kinases as ATR and ATM (FIG. 8B). […]

The test system of assay [3] is MHHCALL4 cell line. The assay is described as follows: 6-MP dose-response in CRISPR/Cas9 NT5C2-KO and NT5ex4a (E4a) KO models, MHHCALL4. It counts as cell-based.
From the text: (§2) FIG. 4: NT5C2 KO in MHHCALL4. (Top left panel) CRISPR/CAS9 strategy for the generation of total NT5C2 or NT5ex4a isoform specific KOs, representing the exons that will be targeted for each model. (Top right panel) Western-Blot of the NT5C2 levels on the parental, NT5C2-KO and NT5ex4a (E4a) KO models in the 697 and MHHCALL4 cell lines.
as §1

For assay [4], the system named is 697 cell line. The assay is described as follows: 6-MP dose-response in CRISPR/Cas9 NT5C2-KO model, 697. Format: cell-based.
From the text: as §2

In assay [5] the test system is REH cells over-expressing the WT, E4a or R238W NT5C2 isoforms. Description: 6-MP chemoresistance in vivo in xenografted B-ALL cells expressing NT5C2 isoforms. Also noted: species or system mice. The settings on record: xenografted B-ALL cells expressing NT5ex4a.
From the text: FIG. 5: NT5C2 E4a alternative isoform in 6-MP resistance. (Left panel) Bioluminescent mouse image of mice engrafted with REH cells over-expressing the WT, E4a or R238W NT5C2 isoforms at different time points. (Right panel) Flux quantification of mice engrafted with REH cells over-expressing the WT, E4a or R238W NT5C2 isoforms at different time points.
as §1

In the case of `NC(=O)c1ncn([C@@H]2O[C@H](CO)[C@@H](O)[C@H]2O)c1O` [mizoribine, 4-carbamoyl-1-β-d-ribofuranosyl imirdozolium], the sensitivity to mizoribine entry in assay [1] is listed as “collateral sensitivity”.

`S=c1nc[nH]c2nc[nH]c12` [6-MP, mercaptopurine]: the “survival in the presence of 6-MP” value in assay [2] (E4a isoform with Ser-121 replaced by aspartic acid (S121D) versus parental E4a or the alanine derivative) is given as “stronger survival advantages”. In assay [2] (NT5ex4a, same level of resistance as the R238W hotspot mutation variant, compared to the canonical isoform), the “difference in IC50 (resistance to 6-MP)” value turned out to be 2 log. The “cell survival in the presence of 6-MP” value in assay [3] (CRISPR/Cas9 engineered NT5ex4a KO cells) was “reduced cell survival”. Moreover, the “sensitivity to 6-MP treatment (dose-response plots)” value was “increased sensitivity” in assay [3] (E4a-KO, E4a-high expression MHHCALL4); “increased sensitivity” in assay [3] (NT5C2-KO, MHHCALL4); “increased sensitivity” in assay [4]. Also, in assay [5], the chemoresistance in vivo result was “chemoresistance in vivo was further confirmed”.
